Results as given in ChEMBL document CHEMBL4118195, “Synthesis and profiling of benzylmorpholine 1,2,4,5-tetraoxane analogue N205: Towards tetraoxane scaffolds with potential for single dose cure of malaria” (Bioorg Med Chem, 2018).

Tests used:
[1] = Drug metabolism in mouse liver microsomes assessed as metabolite M+32 (IV) formation at 5 uM after 60 mins by UPLC-MS analysis; type: ADME, microsome; conditions: 1 h
[2] = Intrinsic clearance in mouse liver microsomes assessed per mg protein at 1 uM by UPLC-MS analysis; type: ADME, microsome; conditions: read-out: CLH
[3] = AUC (0 to t) in humanized NOD.Cg-Prkdcscid Il2rgtm1Wjl/SzJ mouse infected with Plasmodium falciparum Pf3D70087/N9 at 50 mg/kg, po administered as single dose by LC-MS/MS analysis; type: ADME, organism-based; conditions: in vivo
[4] = test system: Plasmodium berghei; assay: Antimalarial activity against Plasmodium berghei infected in mouse assessed as mouse mean survival days at 30 mg/kg, po administered as single dose; type: functional
[5] = target: T1, Cytochrome P450 1A2 (Homo sapiens, UniProt P05177); assay: Inhibition of CYP1A2 in human liver microsomes assessed as phenacetin O-deethylation after 4 to 40 mins in presence of NADPH by LCMS analysis; type: ADME
T1 sequence (P05177 whole entry): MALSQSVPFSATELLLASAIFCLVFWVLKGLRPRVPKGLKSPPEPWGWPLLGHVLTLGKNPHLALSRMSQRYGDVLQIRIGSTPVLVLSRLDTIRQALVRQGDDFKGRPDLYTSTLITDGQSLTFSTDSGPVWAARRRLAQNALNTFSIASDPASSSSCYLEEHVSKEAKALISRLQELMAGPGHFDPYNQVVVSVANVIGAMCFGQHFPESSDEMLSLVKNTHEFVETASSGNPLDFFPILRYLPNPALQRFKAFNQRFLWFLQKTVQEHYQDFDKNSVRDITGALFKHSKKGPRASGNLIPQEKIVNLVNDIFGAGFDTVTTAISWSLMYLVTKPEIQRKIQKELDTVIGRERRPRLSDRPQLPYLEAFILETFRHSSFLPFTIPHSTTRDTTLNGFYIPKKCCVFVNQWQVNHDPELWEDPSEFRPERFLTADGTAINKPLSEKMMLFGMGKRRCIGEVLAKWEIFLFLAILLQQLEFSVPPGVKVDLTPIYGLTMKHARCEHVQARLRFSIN

[6] = Drug metabolism in human liver microsomes assessed as deaminated morpholine metabolite formation at 5 uM after 60 mins by UPLC-MS analysis; type: ADME, microsome; conditions: 1 h
[7] = Drug degradation in rat liver microsomes assessed as compound half life at 1 uM by UPLC-MS method; type: ADME, microsome
[8] = test system: Mus musculus; assay: Dose normalized AUC (0 to t) in humanized NOD.Cg-Prkdcscid Il2rgtm1Wjl/SzJ mouse infected with Plasmodium falciparum Pf3D70087/N9 at 15 mg/kg, po administered as single dose by LC-MS/MS analysis; type: ADME, organism-based; conditions: in vivo
[9] = Oral bioavailability in Sprague-Dawley rat at 100 mg/kg administered via gavage by LC/MS analysis; type: ADME, organism-based; conditions: in vivo
[10] = Drug metabolism in human liver microsomes assessed as open morpholine ring metabolite formation at 5 uM after 60 mins by UPLC-MS analysis; type: ADME, microsome; conditions: 1 h
[11] = Drug metabolism in mouse liver microsomes assessed as morpholine ring opened metabolite formation at 5 uM after 60 mins by UPLC-MS analysis; type: ADME, microsome; conditions: 1 h
[12] = Drug metabolism in human liver microsomes assessed as cleaved morpholine ring metabolite formation at 5 uM after 60 mins by UPLC-MS analysis; type: ADME, microsome; conditions: 1 h
[13] = Tmax in humanized NOD.Cg-Prkdcscid Il2rgtm1Wjl/SzJ mouse infected with Plasmodium falciparum Pf3D70087/N9 at 50 mg/kg, po administered as single dose by LC-MS/MS analysis; type: ADME, organism-based; conditions: in vivo
[14] = Drug metabolism in mouse liver microsomes assessed as morpholine dealkylated metabolite formation at 5 uM after 60 mins by UPLC-MS analysis; type: ADME, microsome; conditions: 1 h
[15] = Drug metabolism in mouse liver microsomes assessed as metabolite M-10(II) formation at 5 uM after 60 mins by UPLC-MS analysis; type: ADME, microsome; conditions: 1 h
[16] = Drug metabolism in mouse liver microsomes assessed as deaminated morpholine metabolite formation at 5 uM after 60 mins by UPLC-MS analysis; type: ADME, microsome; conditions: 1 h
[17] = Drug metabolism in rat liver microsomes assessed as metabolite M+32 (IV) formation at 5 uM after 60 mins by UPLC-MS analysis; type: ADME, microsome; conditions: 1 h
[18] = Drug metabolism in mouse liver microsomes at 5 uM after 60 mins by UPLC-MS analysis; type: ADME, microsome; conditions: read-out: Drug metabolism
[19] = Intrinsic clearance in human liver microsomes assessed per mg protein at 5 uM by UPLC-MS analysis; type: ADME, microsome; conditions: read-out: CLH
[20] = Drug metabolism in human liver microsomes assessed as morpholine dealkylated metabolite formation at 5 uM after 60 mins by UPLC-MS analysis; type: ADME, microsome; conditions: 1 h
[21] = Intrinsic clearance in rat liver microsomes assessed per mg protein at 5 uM by UPLC-MS analysis; type: ADME, microsome; conditions: read-out: CLH
[22] = test system: Plasmodium berghei; assay: Antimalarial activity against Plasmodium berghei infected in mouse assessed as reduction in parasitemia at 30 mg/kg, po administered as single dose measured on day 3 relative to control; type: functional; parameters: scale not given: the % may be the effect or the level left
[23] = test system: Mus musculus; assay: Dose normalized AUC (0 to t) in humanized NOD.Cg-Prkdcscid Il2rgtm1Wjl/SzJ mouse infected with Plasmodium falciparum Pf3D70087/N9 at 50 mg/kg, po administered as single dose by LC-MS/MS analysis; type: ADME, organism-based; conditions: in vivo
[24] = test system: Mus musculus; assay: Dose normalized Cmax in humanized NOD.Cg-Prkdcscid Il2rgtm1Wjl/SzJ mouse infected with Plasmodium falciparum Pf3D70087/N9 at 30 mg/kg, po administered as single dose after 0.25 to 23 hrs by LC-MS/MS analysis; type: ADME, organism-based; conditions: in vivo
[25] = Metabolic stability in rat blood after 2 to 4 hrs by LC-MS method; type: ADME, tissue-based
[26] = AUC (0 to t) in humanized NOD.Cg-Prkdcscid Il2rgtm1Wjl/SzJ mouse infected with Plasmodium falciparum Pf3D70087/N9 at 5 mg/kg, po administered as single dose by LC-MS/MS analysis; type: ADME, organism-based; conditions: in vivo
[27] = Intrinsic clearance in human liver microsomes assessed per mg protein at 1 uM by UPLC-MS analysis; type: ADME, microsome; conditions: read-out: CLH
[28] = target: Cytochrome P450 3A4 (Homo sapiens, UniProt P08684); assay: Inhibition of CYP3A4 in human liver microsomes assessed as midazolam 1'-hydroxylation after 4 to 40 mins in presence of NADPH by LCMS analysis; type: ADME
Cytochrome P450 3A4, sequence (P08684 whole entry): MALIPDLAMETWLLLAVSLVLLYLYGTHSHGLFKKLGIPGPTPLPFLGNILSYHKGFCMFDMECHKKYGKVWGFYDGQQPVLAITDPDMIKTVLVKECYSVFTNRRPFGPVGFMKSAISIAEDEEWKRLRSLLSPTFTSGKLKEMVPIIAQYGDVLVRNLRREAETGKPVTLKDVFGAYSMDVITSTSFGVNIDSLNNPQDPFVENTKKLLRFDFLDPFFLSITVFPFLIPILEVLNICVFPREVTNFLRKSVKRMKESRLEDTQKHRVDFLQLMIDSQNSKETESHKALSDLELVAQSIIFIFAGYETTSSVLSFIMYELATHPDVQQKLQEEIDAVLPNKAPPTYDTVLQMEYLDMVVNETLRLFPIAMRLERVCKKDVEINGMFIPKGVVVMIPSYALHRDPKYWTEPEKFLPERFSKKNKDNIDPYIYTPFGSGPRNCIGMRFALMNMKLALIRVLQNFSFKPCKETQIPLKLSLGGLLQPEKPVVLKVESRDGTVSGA

[29] = Drug metabolism in mouse liver microsomes assessed as ring dehydrogenated metabolite formation at 5 uM after 60 mins by UPLC-MS analysis; type: ADME, microsome; conditions: 1 h
[30] = Drug degradation in human liver microsomes assessed as compound half life at 1 uM by UPLC-MS method; type: ADME, microsome
[31] = Drug metabolism in human liver microsomes assessed as metabolite M+16 (III) formation at 5 uM after 60 mins by UPLC-MS analysis; type: ADME, microsome; conditions: 1 h
[32] = Cmax in humanized NOD.Cg-Prkdcscid Il2rgtm1Wjl/SzJ mouse infected with Plasmodium falciparum Pf3D70087/N9 at 15 mg/kg, po administered as single dose after 0.25 to 23 hrs by LC-MS/MS analysis; type: ADME, organism-based; parameters: dose 15 mg/kg, route oral; conditions: in vivo
[33] = Drug metabolism in human liver microsomes assessed as metabolite M+16 (IV) formation at 5 uM after 60 mins by UPLC-MS analysis; type: ADME, microsome; conditions: 1 h

For `c1cc(C2CCC3(CC2)OOC2(OO3)C3CC4CC(C3)CC2C4)ccc1CN1CCOCC1` (stereo not drawn), the Drug metabolism [1] was “Metabolite_Detected”, the microsomal CLint at 1 µM [2] was 37 µL/min/mg and the AUC(0-t) [3] was 3000 ng·h/mL. The MSD [4] was 26.3 days, the IC50 [5] was greater than 20 µM and the Drug metabolism [6] was “Metabolite_Notdetected”. It also gave a half-life at 1 µM [7] of 15 min, an AUCt/dose [8] of 0.0499 µg·h/mL/mg/kg and a bioavailability [9] of 52%. The Drug metabolism [10] was “Metabolite_Notdetected”, the Drug metabolism [11] was “Metabolite_Notdetected” and the Drug metabolism [12] was “Metabolite_Notdetected”. For the same compound, the Tmax [13] was 120 min, the Drug metabolism [14] was “Metabolite_Notdetected” and the Drug metabolism [15] was “Metabolite_Detected”. For the same compound, the Drug metabolism [16] was “Metabolite_Notdetected”, the Drug metabolism [17] was “Metabolite_Detected” and the metabolised at 1 h, 5 µM [18] was 39%. The microsomal CLint at 5 µM [19] was 41 µL/min/mg, the Drug metabolism [20] was “Metabolite_Notdetected” and the microsomal CLint at 5 µM [21] was 89 µL/min/mg. It also gave an Activity [22] of 99.42%, an AUCt/dose [23] of 0.0599 µg·h/mL/mg/kg and a Cmax/dose [24] of 0.0049 µg/mL/mg/kg. For the same compound, the Stability [25] was “Stable”, the AUC(0-t) [26] was 1280 ng·h/mL and the microsomal CLint at 1 µM [27] was 51 µL/min/mg. The IC50 [28] was greater than 20 µM, the Drug metabolism [29] was “Metabolite_Notdetected” and the half-life at 1 µM [30] was 34 min. The Drug metabolism [31] was “Metabolite_Notdetected”, the Cmax [32] was 148 ng/mL and the Drug metabolism [33] was “Metabolite_Notdetected”.
